The record followed here is US7160888B2, “[1,8]naphthyridin-2-ones and related compounds for the treatment of schizophrenia” (Warner Lambert Company LLC, priority 2003, dated 2007).

This assay concerns the target D2 receptor (Homo sapiens, UniProt P14416). Nature of the assay: [3H]Thymidine uptake assay for D2 intrinsic activity. Conditions: test compound 1 μM, 1 μM Quinpirole = 100% intrinsic activity. The assay is classed as cell-based.

D2 receptor, sequence (P14416 whole entry): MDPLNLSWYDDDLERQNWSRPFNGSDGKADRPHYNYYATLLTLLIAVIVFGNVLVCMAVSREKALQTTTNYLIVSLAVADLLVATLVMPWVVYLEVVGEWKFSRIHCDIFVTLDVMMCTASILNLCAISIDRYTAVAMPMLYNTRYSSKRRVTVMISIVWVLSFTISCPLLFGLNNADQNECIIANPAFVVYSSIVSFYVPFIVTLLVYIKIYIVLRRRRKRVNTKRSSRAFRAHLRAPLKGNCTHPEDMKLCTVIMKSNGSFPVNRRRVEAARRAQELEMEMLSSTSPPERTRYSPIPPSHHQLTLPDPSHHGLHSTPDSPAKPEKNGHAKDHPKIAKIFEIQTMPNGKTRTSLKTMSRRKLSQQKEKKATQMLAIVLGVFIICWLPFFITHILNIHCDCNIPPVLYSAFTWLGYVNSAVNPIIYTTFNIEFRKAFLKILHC
Experimental: D2 intrinsic activity of title compounds of the Examples, below, was determined using the [^3H]thymidine uptake assay described below.
[^3H]Thymidine Uptake Assay for D2 Intrinsic Activity
Cells are serum deprived by washing twice with 200 μl of serum-free media. 90 μl serum-free media was added to each well. The plates ware incubated for two to three hours. 10 μl of serum-containing media, as a positive control, vehicle (serum-free media), negative control (an antagonist) or test compounds and standards (10 μl of a 10 μM solution for a final concentration of 1 μM) in serum-free media were added to wells. The plates are returned to the incubator. Eighteen hours later [^3H]thymidine is added (0.5 μCi/well in 10 μl of serum-free media) and the plates are returned to the incubator. […] The plates are returned to the incubator, once again. One hour later the assay is terminated by rapid filtration through Whatman GF/C glass fiber filters. Filters are washed four times with 500 ml of 50 mM Tris-HCl pH 7.0 buffer, for example, using a Brandel MLR-96T cell harvester. […] Intrinsic activity is defined as total uptake (1 μM Quinpirole) minus serum-free media (no uptake). Test compounds are compared to 1 μM Quinpirole (full DA agonist), which was classified as 100% intrinsic activity.

The term Emax denotes the greatest response seen or fitted, relative to the assay's reference. In turn, `CC1CC(=O)Nc2nc(OCCCCN3CCN(c4cccc(Cl)c4Cl)CC3)ccc21` (single isomer, unassigned) [Example D2a, 7-{4-[4-(2,3-Dichloro-phenyl)-piperazin-1-yl]-butoxy}-4-methyl-3,4-dihydro-1H-[1,8]naphthyridin-2-one] returned an Emax at 1 µM (Table 1) of 20%.

On to `CC1Cc2ccc(OCCCCN3CCN(c4cccc(Cl)c4Cl)CC3)nc2NC1=O` (single isomer, unassigned) [Example D6a, 7-{4-[4-(2,3-Dichloro-phenyl)-piperazin-1-yl]-butoxy}-3-methyl-3,4-dihydro-1H-[1,8]naphthyridin-2-one], for which the Emax at 1 µM (Table 1) came out at 17%.

For the setting “Table 2”, `O=C1CCc2ccc(OCCCCN3CCN(c4cccc5[nH]c(=O)oc45)CC3)nc2N1` [Example A1′, 7-{4-[4-(2-Oxo-2,3-dihydro-benzooxazol-7-yl)-piperazin-1-yl]-butoxy}-3,4-dihydro-1H-[1,8]naphthyridin-2-one] displayed an Emax at 1 µM of 73%.

Turning to `O=C1CCc2ccc(OCCCCN3CCN(c4cccc5c4OCC5)CC3)nc2N1` [Example A2′, 7-{4-[4-(2,3-Dihydro-benzofuran-7-yl)-piperazin-1-yl]-butoxy}-3,4-dihydro-1H-[1,8]naphthyridin-2-one], the Emax at 1 µM (Table 2) was 21%.

As for `CC1(C)Cc2cccc(N3CCN(CCCCOc4ccc5c(n4)NC(=O)CC5)CC3)c2O1` [Example A3′, 7-{4-[4-(2,2-Dimethyl-2,3-dihydro-benzofuran-7-yl)-piperazin-1-yl]-butoxy}-3,4-dihydro-1H-[1,8]naphthyridin-2-one], the Emax at 1 µM (Table 2) was found to be 37%.

`O=C1CCc2ccc(OCCCCN3CCN(c4cccc5c4OCCC5)CC3)nc2N1` [Example A4′, 7-[4-(4-Chroman-8-yl-piperazin-1-yl)-butoxy]-3,4-dihydro-1H-[1,8]naphthyridin-2-one]: the Emax at 1 µM (Table 2) turned out to be 18%.

Consider `CC1(C)C=Cc2cccc(N3CCN(CCCCOc4ccc5c(n4)NC(=O)CC5)CC3)c2O1` [Example A5′, 7-{4-[4-(2,2-Dimethyl-2H-chromen-8-yl)-piperazin-1-yl]-butoxy}-3,4-dihydro-1H-[1,8]naphthyridin-2-one], for which the Emax at 1 µM (Table 2) came to 31%.

With `CC1(C)CCc2cccc(N3CCN(CCCCOc4ccc5c(n4)NC(=O)CC5)CC3)c2O1` [Example A6′, 7-{4-[4-(2,2-Dimethyl-chroman-8-yl)-piperazin-1-yl]-butoxy}-3,4-dihydro-1H-[1,8]naphthyridin-2-one], the Emax at 1 µM (Table 2) came to 42%.

For the compound `O=C1CCc2ccc(OCCCCN3CCN(c4cccc5c4OC4(C=C5)CCCC4)CC3)nc2N1` [Example A7′, 7-{4-[4-(Spiro[chromene-2,1′-cyclopentan]-8-yl)-piperazin-1-yl]-butoxy}-3,4-dihydro-1H-[1,8]naphthyridin-2-one], the Emax at 1 µM (Table 2) was 34%.

The compound `O=C1CCc2ccc(OCCCCN3CCN(c4ccc(F)c(Cl)c4Cl)CC3)nc2N1` [Example A8, 7-{4-[4-(2,3-Dichloro-4-fluoro-phenyl)-piperazin-1-yl]-butoxy}-3,4-dihydro-1H-[1,8]naphthyridin-2-one] had an Emax at 1 µM (Table 1) of 7%.

As to `O=C1CCc2ccc(OCCCCN3CCN(c4cccc5c4OC4(CCCC4)CC5)CC3)nc2N1` [Example A8′, 7-{4-[4-(3,4-Dihydrospiro[chromene-2,1′-cyclopentan]-8-yl)-piperazin-1-yl]-butoxy}-3,4-dihydro-1H-[1,8]naphthyridin-2-one], for the setting “Table 2”, the Emax at 1 µM stood at 30%.

As to `O=C1CCc2ccc(OCCCCN3CCN(c4ccc(F)cc4Cl)CC3)nc2N1` [Example A9, 7-{4-[4-(2-Chloro-4-fluoro-phenyl)-piperazin-1-yl]-butoxy}-3,4-dihydro-1H-[1,8]naphthyridin-2-one], under “Table 1”, the Emax at 1 µM turned out to be 9%.

As for `CC1C=Cc2cccc(N3CCN(CCCCOc4ccc5c(n4)NC(=O)CC5)CC3)c2O1` (stereo not shown) [Example A9′, 7-{4-[4-(2-Methyl-2H-chromen-8-yl)-piperazin-1-yl]-butoxy}-3,4-dihydro-1H-[1,8]naphthyridin-2-one], the Emax at 1 µM (Table 2) turned out to be 30%.

The compound `O=C1CCc2ccc(OCCCCN3CCN(c4ccccc4-c4ccccc4)CC3)nc2N1` [Example A11, 7-[4-(4-Biphenyl-2-yl-piperazin-1-yl)-butoxy]-3,4-dihydro-1H-[1,8]naphthyridin-2-one] yielded an Emax at 1 µM (Table 1) of 6%.

`O=C1CCc2ccc(OCCCCN3CCN(c4cccc5c4CCO5)CC3)nc2N1` [Example A11′, 7-{4-[4-(2,3-Dihydro-benzofuran-4-yl)-piperazin-1-yl]-butoxy}-3,4-dihydro-1H-[1,8]naphthyridin-2-one] displayed an Emax at 1 µM (Table 2) of 17%.

On to `O=C1CCc2ccc(OCCCCN3CCN(c4cc(Cl)ccc4Cl)CC3)nc2N1` [Example A12, 7-{4-[4-(2,5-Dichloro-phenyl)-piperazin-1-yl]-butoxy}-3,4-dihydro-1H-[1,8]naphthyridin-2-one], for which the Emax at 1 µM (Table 1) came out at 11%.

Regarding `Cc1cc(N2CCN(CCCCOc3ccc4c(n3)NC(=O)CC4)CC2)c(Cl)cc1F` [Example A13, 7-{4-[4-(2-Chloro-4-fluoro-5-methyl-phenyl)-piperazin-1-yl]-butoxy}-3,4-dihydro-1H-[1,8]naphthyridin-2-one], under “Table 1”, the Emax at 1 µM worked out at 21%.

`O=C1CCc2ccc(OCCCCN3CCN(c4cccc5c4CCCO5)CC3)nc2N1` [Example A13′, 7-[4-(4-Chroman-5-yl-piperazin-1-yl)-butoxy]-3,4-dihydro-1H-[1,8]naphthyridin-2-one] had an Emax at 1 µM (Table 2) of 14%.

`Cc1ccc(Cl)cc1N1CCN(CCCCOc2ccc3c(n2)NC(=O)CC3)CC1` [Example A14, 7-{4-[4-(5-Chloro-2-methyl-phenyl)-piperazin-1-yl]-butoxy}-3,4-dihydro-1H-[1,8]naphthyridin-2-one]: the Emax at 1 µM (Table 1) was 7%.

In turn, `Cc1c(F)ccc(N2CCN(CCCCOc3ccc4c(n3)NC(=O)CC4)CC2)c1Cl` [Example A15, 7-{4-[4-(2-Chloro-4-fluoro-3-methyl-phenyl)-piperazin-1-yl]-butoxy}-3,4-dihydro-1H-[1,8]naphthyridin-2-one] registered an Emax at 1 µM (Table 1) of 4%.

In the case of `CCc1cccc(N2CCN(CCCCOc3ccc4c(n3)NC(=O)CC4)CC2)c1` [Example A16, 7-{4-[4-(3-Ethyl-phenyl)-piperazin-1-yl]-butoxy}-3,4-dihydro-1H-[1,8]naphthyridin-2-one], the Emax at 1 µM (Table 1) was 16%.

With `O=C1CCc2ccc(OCCCCN3CCN(c4cccc5c4OCCO5)CC3)nc2N1` [Example A16′, 7-{4-[4-(2,3-Dihydro-benzo[1,4]dioxin-5-yl)-piperazin-1-yl]-butoxy}-3,4-dihydro-1H-[1,8]naphthyridin-2-one], the Emax at 1 µM (Table 2) came out at 15%.

`COc1c(Cl)cccc1N1CCN(CCCCOc2ccc3c(n2)NC(=O)CC3)CC1` [Example A17, 7-{4-[4-(3-Chloro-2-methoxy-phenyl)-piperazin-1-yl]-butoxy}-3,4-dihydro-1H-[1,8]naphthyridin-2-one]: for the setting “Table 1”, the Emax at 1 µM came to 15%.

`O=C1CCc2ccc(OCCCCN3CCN(c4cccc5c4OCCCO5)CC3)nc2N1` [Example A17′, 7-{4-[4-(3,4-Dihydro-2H-benzo[b][1,4]dioxepin-6-yl)-piperazin-1-yl]-butoxy}-3,4-dihydro-1H-[1,8]naphthyridin-2-one] showed an Emax at 1 µM (Table 2) of 15%.

Compound `O=C1CCc2ccc(OCCCCN3CCN(c4cccc5c4OC(F)(F)C(F)(F)O5)CC3)nc2N1` [Example A18′, 7-{4-[4-(2,2,3,3-Tetrafluoro-2,3-dihydro-benzo[1,4]dioxin-5-yl)-piperazin-1-yl]-butoxy}-3,4-dihydro-1H-[1,8]naphthyridin-2-one] came in with an Emax at 1 µM (Table 2) of 13%.

In the case of `COc1cccc(N2CCN(CCCCOc3ccc4c(n3)NC(=O)CC4)CC2)c1OC` [Example A19, 7-{4-[4-(2,3-Dimethoxy-phenyl)-piperazin-1-yl]-butoxy}-3,4-dihydro-1H-[1,8]naphthyridin-2-one], the Emax at 1 µM (Table 1) is 10%.

The compound `O=C1CCc2ccc(OCCCCN3CCN(c4cccc5c4OC(F)(F)O5)CC3)nc2N1` [Example A19′, 7-{4-[4-(2,2-Difluoro-benzo[1,3]dioxol-4-yl)-piperazin-1-yl]-butoxy}-3,4-dihydro-1H-[1,8]naphthyridin-2-one] displayed an Emax at 1 µM (Table 2) of 40%.

Take `CCOc1ccccc1N1CCN(CCCCOc2ccc3c(n2)NC(=O)CC3)CC1` [Example A20, 7-{4-[4-(2-Ethoxy-phenyl)-piperazin-1-yl]-butoxy}-3,4-dihydro-1H-[1,8]naphthyridin-2-one]: where the note is “Table 1”, the Emax at 1 µM amounted to 19%.

With `CC1(C)COc2c(cccc2N2CCN(CCCCOc3ccc4c(n3)NC(=O)CC4)CC2)C1=O` [Example A21′, 7-{4-[4-(3,3-Dimethyl-4-oxo-chroman-8-yl)-piperazin-1-yl]-butoxy}-3,4-dihydro-1H-[1,8]naphthyridin-2-one], where the note is “Table 2”, the Emax at 1 µM worked out at 24%.

As to `COc1cccc(N2CCN(CCCCOc3ccc4c(n3)NC(=O)CC4)CC2)c1Cl` [Example A22, 7-{4-[4-(2-Chloro-3-methoxy-phenyl)-piperazin-1-yl]-butoxy}-3,4-dihydro-1H-[1,8]naphthyridin-2-one], the Emax at 1 µM (Table 1) came out at 36%.

In turn, `O=C1CCc2ccc(OCCCCN3CCN(c4cccc5ccoc45)CC3)nc2N1` [Example A23′, 7-[4-(4-Benzofuran-7-yl-piperazin-1-yl)-butoxy]-3,4-dihydro-1H-[1,8]naphthyridin-2-one] returned an Emax at 1 µM (Table 2) of 39%.

As for `O=C1CCc2ccc(OCCCCN3CCN(c4cccc5cc[nH]c45)CC3)nc2N1` [Example A24′, 7-{4-[4-(1H-Indol-7-yl)-piperazin-1-yl]-butoxy}-3,4-dihydro-1H-[1,8]naphthyridin-2-one], the Emax at 1 µM (Table 2) was determined as 6%.

For `CC(C)Oc1ccc(Cl)cc1N1CCN(CCCCOc2ccc3c(n2)NC(=O)CC3)CC1` [Example A25, 7-{4-[4-(5-Chloro-2-isopropoxy-phenyl)-piperazin-1-yl]-butoxy}-3,4-dihydro-1H-[1,8]naphthyridin-2-one], for the setting “Table 1”, the Emax at 1 µM came to 27%.

Under “Table 2”, `O=C1CCc2ccc(OCCCCN3CCN(c4cccc5[nH]ccc45)CC3)nc2N1` [Example A25′, 7-{4-[4-(1H-Indol-4-yl)-piperazin-1-yl]-butoxy}-3,4-dihydro-1H-[1,8]naphthyridin-2-one] gave an Emax at 1 µM of 36%.
